Source: US7241767B2, “Quinazoline(di)ones for invertebrate pest control” (E. I. du Pont de Nemours and Company, priority 2002, dated 2007)

Experiments:
[1] = tested on: green peach aphid (Myzus persicae); assay: Test E: control of green peach aphid on radish plant, contact and/or systemic; type: in vivo; settings: 144 h, sprayed at 250 ppm, visually assessed after 6 days
Text: For evaluating control of green peach aphid (Myzus persicae) through contact and/or systemic means, the test unit consisted of a small- open container with a 12–15-day-old radish plant inside. This was pre-infested by placing on a leaf of the test plant 30–40 aphids on a piece of leaf excised from a culture plant (cut-leaf method). The larvae moved onto the test plant as the leaf piece desiccated. After pre-infestation, the soil of the test unit was covered with a layer of sand.
(§1) Test compounds were formulated using a solution containing 10% acetone, 90% water and 300 ppm X-77® Spreader Lo-Foam Formula non-ionic surfactant containing alkylarylpolyoxyethylene, free fatty acids, glycols and isopropanol (Loveland Industries, Inc.). The formulated compounds were applied in 1 mL of liquid through a SUJ2 atomizer nozzle with ⅛ JJ custom body (Spraying Systems Co.) positioned 1.27 cm (0.5 inches) above the top of each test unit. All experimental compounds in this screen were sprayed at 250 ppm and replicated three times. After spraying of the formulated test compound, each test unit was allowed to dry for 1 hour and then a black, screened cap was placed on top. The test units were held for 6 days in a growth chamber at 19–21° C. and 50–70% relative humidity. Each test unit was then visually assessed for insect mortality.

[2] = tested on: cotton melon aphid (Aphis gossypii); assay: Test F: control of cotton melon aphid on cotton plant, contact and/or systemic; type: in vivo; settings: 144 h, sprayed at 250 ppm, visually rated after 6 days
Experimental: as §1
For evaluating control of cotton melon aphid (Aphis gossypii) through contact and/or systemic means, the test unit consisted of a small open container with a 6–7-day-old cotton plant inside. This was pre-infested with 30–40 aphids on a piece of leaf according to the cut-leaf method described for Test E, and the soil of the test unit was covered with a layer of sand.
Test compounds were formulated and sprayed at 250 ppm as described for Test E. The applications were replicated three times. After spraying, the test units were maintained in a growth chamber and then visually rated as described for Test E.

[3] = tested on: Potato Leafhopper (Empoasca fabae Harris); assay: Test H: control of Potato Leafhopper on Longio bean plant, contact and/or systemic; type: in vivo; settings: 144 h, sprayed at 250 ppm, post-infested with adults, visually assessed after 6 days
Experimental: as §1
For evaluating control of Potato Leafhopper (Empoasca fabae Harris) through contact and/or systemic means, the test unit consisted of a small open container with a 5–6 day old Longio bean plant (primary leaves emerged) inside. White sand was added to the top of the soil and one of the primary leaves was excised prior to application. Test compounds were formulated and sprayed at 250 ppm and replicated three times as described for Test E. After spraying, the test units were allowed to dry for 1 hour before they were post-infested with 5 Potato Leafhoppers (18 to 21 day old adults). A black, screened cap is placed on the top of the cylinder. The test units were held for 6 days in a growth chamber at 19–21° C. and 50–70% relative humidity. Each test unit was then visually assessed for insect mortality.

[4] = tested on: Corn Planthopper (Peregrinus maidis); assay: Test G: control of Corn Planthopper on corn (maize) plant, contact and/or systemic; type: in vivo; settings: 144 h, sprayed at 250 ppm, post-infested with nymphs, visually assessed after 6 days
Experimental: as §1
For evaluating control of Corn Planthopper (Peregrinus maidis) through contact and/or systemic means, the test unit consisted of a small open container with a 3–4 day old corn (maize) plant (spike) inside. White sand was added to the top of the soil prior to application. […] Each test unit was then visually assessed for insect mortality.

| melting point [°C] | Structure (SMILES) | mortality at 250 ppm [1] [%] | mortality at 250 ppm [2] [%] | mortality at 250 ppm [3] [%] | mortality at 250 ppm [4] [%] |
| --- | --- | --- | --- | --- | --- |
| – | CN1CN(C(=O)c2cc(Cl)nn2-c2ncccc2Cl)c2c(Cl)cc(Cl)cc2C1=O [Compound 11, 6-8-Dichloro-1-[[3-Chloro-1-(3-Chloro-2-pyridinyl)-1H-pyrazol-5-yl]carbonyl]-2,3-dihydro-3-methyl-4(1H)-quinazolinone] | ≥ 80 | ≥ 80 | ≥ 80 | – |
| – | CN1CN(C(=O)c2cc(C(F)(F)F)nn2-c2ncccc2Cl)c2c(Cl)cc(Cl)cc2C1=O [Compound 13, 6,8-Dichloro-1-[[1-(3-Chloro-2-pyridinyl)-3-(trifluoromethyl)-1H-pyrazol-5-yl]carbonyl]-2,3-dihydro-3-methyl-4(1H)-quinazolinone] | ≥ 80 | ≥ 80 | ≥ 80 | ≥ 80 |
| – | CN1CN(C(=O)c2cc(Br)nn2-c2ncccc2Cl)c2c(Cl)cc(Cl)cc2C1=O [Compound 12, 1-[[3-Bromo-1-(3-Chloro-2-pyridinyl)-1H-pyrazol-5-yl]carbonyl]-6,8-dichloro-2,3-dihydro-3-methyl-4(1H)-quinazolinone] | ≥ 80 | ≥ 80 | ≥ 80 | ≥ 80 |
| 238 to 240 | Cc1cc(Cl)cc2c1N(C(=O)c1cc(Cl)nn1-c1ncccc1Cl)CN(C)C2=O [Compound 17, 6-Chloro-1-[[3-Chloro-1-(3-Chloro-2-pyridinyl)-1H-pyrazol-5-yl]carbonyl]-2,3-dihydro-3,8-dimethyl-4(1H)-quinazolinone] | – | – | – | – |
| – | O=C1NCN(C(=O)c2cc(Cl)nn2-c2ncccc2Cl)c2c(Cl)cc(Cl)cc21 [Compound 28, 6,8-Dichloro-1-[[3-Chloro-1-(3-Chloro-2-pyridinyl)-1H-pyrazol-5-yl]carbonyl]-2,3-dihydro-4(1H)-quinazolinone] | ≥ 80 | – | – | – |
| – | Cc1cc(Cl)cc2c1N(C(=O)c1cc(Br)nn1-c1ncccc1Cl)CN(C(C)C)C2=O [Compound 15, 1-[[3-Bromo-1-(3-Chloro-2-pyridinyl)-1H-pyrazol-5-yl]carbonyl]-6-Chloro-2,3-dihydro-8-methyl-3-(1-methylethyl)-4-(1H)-quinazolinone] | – | ≥ 80 | ≥ 80 | – |
| – | CC(C)N1CN(C(=O)c2cc(Cl)nn2-c2ncccc2Cl)c2c(Cl)cc(Cl)cc2C1=O [Compound 8, 6,8-Dichloro-1-[[3-Chloro-1-(3-Chloro-2-pyridinyl)-1H-pyrazol-5-yl]carbonyl]-2,3-dihydro-3-(1-methylethyl)-4(H)-quinazolinone] | ≥ 80 | ≥ 80 | ≥ 80 | – |
| 135 to 156 | O=C1c2cc(Cl)cc(Cl)c2N(C(=O)c2cc(Cl)nn2-c2ncccc2Cl)C(c2cccnc2)N1Cl (centres unmarked) [Compound 22] | – | – | – | – |
| 219 to 220 | Cc1cc(Cl)cc2c1N(C(=O)c1cc(Cl)nn1-c1ncccc1Cl)CN(C(C)C)C2=O [Compound 14, 6-Chloro-1-[[3-Chloro-1-(3-Chloro-2-pyridinyl)-1H-pyrazol-5-yl]carbonyl]-2,3-dihydro-8-methyl-3-(1-methylethyl)-4(1H)-quinazolinone] | – | – | – | – |
| – | O=C1NCN(C(=O)c2cc(C(F)(F)F)nn2-c2ncccc2Cl)c2c(Cl)cc(Cl)cc21 [Compound 29, 6,8-Dichloro-1-[[1-(3-Chloro-2-pyridinyl)-3-(trifluoromethyl)-1H-pyrazol-5-yl]carbonyl]-2,3-dihydro-4(1H)-quinazolinone] | ≥ 80 | ≥ 80 | ≥ 80 | – |
| 143 to 190 | Cc1cccc2c1N(C(=O)c1cc(Cl)nn1-c1ncccc1Cl)C(C(=O)O)N(C(C)C)C2=O (centres unmarked) [Compound 20] | – | – | – | – |
| – | CC(C)N1CN(C(=O)c2cc(C(F)(F)F)nn2-c2ncccc2Cl)c2c(Cl)cc(Cl)cc2C1=O [Compound 10, 6,8-Dichloro-1-[[1-(3-Chloro-2-pyridinyl)-3-(trifluoromethyl)-1H-pyrazol-5-yl]carbonyl]-2,3-dihydro-3-(1-methylethyl)-4(1H)-quinazolinone] | – | – | ≥ 80 | – |
| – | Cc1cc(Cl)cc2c1N(C(=O)c1cc(C(F)(F)F)nn1-c1ncccc1Cl)CN(C(C)C)C2=O [Compound 16, 6-Chloro-1-[[1-(3-Chloro-2-pyridinyl)-3-(trifluoromethyl)-1H-pyrazol-5-yl]carbonyl]-2,3-dihydro-8-methyl-3-(1-methylethyl)-4(1H)-quinazolinone] | – | ≥ 80 | ≥ 80 | – |
| – | CC(C)N1CN(C(=O)c2cc(Br)nn2-c2ncccc2Cl)c2c(Cl)cc(Cl)cc2C1=O [Compound 9, 1-[[3-Bromo-1-(3-Chloro-2-pyridinyl)-1H-pyrazol-5-yl]carbonyl]-6,8-dichloro-2,3-dihydro-3-(1-methylethyl)-4-(1H)-quinazolinone] | ≥ 80 | ≥ 80 | ≥ 80 | – |
| – | Cc1cc(Cl)cc2c1N(C(=O)c1cc(C(F)(F)F)nn1-c1ncccc1Cl)CN(C)C2=O [Compound 19, 6-Chloro-1-[[1-(3-Chloro-2-pyridinyl)-3-(tifluoromethyl)-1H-pyrazol-5-yl]carbonyl]-2,3-dihydro-3,8-dimethyl-4(1H)-quinazolinone] | ≥ 80 | ≥ 80 | ≥ 80 | – |
| 254 to 255 | Cc1cc(Cl)cc2c1N(C(=O)c1cc(Br)nn1-c1ncccc1Cl)CN(C)C2=O [Compound 18, 1-[[3-Bromo-1-(3-Chloro-2-pyridinyl)-1H-pyrazol-5-yl]carbonyl]-6-Chloro-2,3-dihydro-3,8-dimethyl-4(1H)-quinazolinone] | – | – | – | – |
| – | O=C1c2cc(Cl)cc(Cl)c2N(C(=O)c2cc(Cl)nn2-c2ncccc2Cl)C(c2c[nH]cn2)N1Cl (centres unmarked) [Compound 24] | – | – | ≥ 80 | – |
